Data from patent US9006205B2, “Antisense oligonucleotides against neutral sphingomyelinase and neutral sphingomyelinase inhibitor GW4869 for degenerative neurological disorders” (Rush University Medical Center, priority 2011, dated 2015).

Key:
Format in all cases: cell-based
[1] = test system: primary human neurons; experiment: TUNEL apoptosis of neurons challenged by (fibrillar Aβ+IL-1β)-activated astrocytes, astrocyte-neuron trans-well; conditions: neurons pretreated 40 h with 1 μM oligonucleotide; 6 h with (fibrillar Aβ+IL-1β)-activated astrocytes
Experimental: (§1) Primary human astrocytes were grown to confluency on inserts. After 24 h of stimulation by the combination of Aβ (1 μM) and IL-Iβ (10 ng/ml), inserts were washed thrice with HBSS and then placed onto the wells containing primary human neurons. Therefore, in this trans-well model, although neurons and astrocytes face each other, they are separable and the effect of soluble factors released from activated astrocytes on neurons can be studied allowing analysis of neuronal and glial populations separately.
Fragmented DNA was detected in situ by the terminal deoxynucleotidyltransferase-mediated binding of 3′-OH ends of DNA fragments generated in response to fibrillar Aβ1-42, using a commercially available kit (TdT FragEL™) from Calbiochem. […]
(§2) Primary human neurons were incubated with antisense (ASO) and scrambled oligonucleotides (ScO) against N-SMase (A) and A-SMase (FIG. 2B). After 48 h, neurons were analyzed for protein expression of N-SMase and A-SMase. […] After 6 h of treatment with activated astrocytes, apoptotic events in neurons were detected by TUNEL. In FIG. 2D, TUNEL-positive cells were counted manually in four different images of each of three coverslips by three individuals blinded to the experiment. […] Values obtained from the control group served as 100%, and data obtained in other groups were calculated as percent of control accordingly. […]

[2] = test system: primary human neurons; experiment: LDH release from neurons in astrocyte-neuron trans-well; conditions: neurons pretreated with oligonucleotide; 18 h of stimulation
Experimental: as §1
The activity of lactate dehydrogenase (LDH) was measured using the direct spectrophotometric assay using an assay kit from Sigma.
as §2, with “A-SMase. In FIG. 2C, primary human astrocytes seeded in inserts were stimulated by the combination of Aβ and IL-1β as described above.” for “A-SMase.”, “experiment. In FIG. 2E, after 18 h of stimulation, cell viability was examined by the metabolism of MTT and the release of LDH.” for “experiment.”
In FIGS. 3A-3E, primary human astrocytes seeded in inserts were stimulated by the combination of Aβ and IL-Iβ as described above. […] In FIG. 3A, after 1 h, activity of N-SMase was measured in total cell extracts of neurons as described above. […] Values obtained from the control group served as 100%, and data obtained in other groups were calculated as percent of control accordingly. […] Primary human neurons were treated with 25 μM DETA-NONOate (a NO donor) and at different time points of treatment, activities of N-SMase (FIG. 3D) and A-SMase (FIG. 3E) were monitored. ^ap<0.001 vs control (0 h).

[3] = test system: N-SMase; experiment: Western blot of N-SMase protein after antisense knockdown in primary human neurons; conditions: 48 h with oligonucleotide
Experimental: Because these ASOs have become a very critical part of our study, the efficacy of N-SMase and A-SMase ASOs in inhibiting the protein expression of N-SMase and A-SMase was checked by western blot. […] Next, the effect of antisense knockdown of neuronal N-SMase and/or A-SMase on activated glia-induced neuronal apoptosis by TUNEL was investigated. […] As evidenced by a decrease In MTT metabolism, activated astroglia reduced neuronal viability (FIG. 2E).
Primary human neurons were incubated with antisense (ASO) and scrambled oligonucleotides (ScO) against N-SMase (A) and A-SMase (FIG. 2B). After 48 h, neurons were analyzed for protein expression of N-SMase and A-SMase. In FIG. 2C, primary human astrocytes seeded in inserts were stimulated by the combination of Aβ and IL-1β as described above. […] After 6 h of treatment with activated astrocytes, apoptotic events in neurons were detected by TUNEL. In FIG. 2D, TUNEL-positive cells were counted manually in four different images of each of three coverslips by three individuals blinded to the experiment. In FIG. 2E, after 18 h of stimulation, cell viability was examined by the metabolism of MTT and the release of LDH. […] Cell viability was checked by MTT (FIG. 2F) and LDH (FIG. 2G). Values obtained from the control group served as 100%, and data obtained in other groups were calculated as percent of control accordingly. […]

[4] = test system: iNOS; experiment: iNOS mRNA expression (RT-PCR, real-time PCR) in activated primary human astrocytes; conditions: oligonucleotide 40 h, then 6 h of stimulation
Experimental: Total RNA was isolated from human primary astrocytes using RNA-Easy Qiagen kit following manufactures protocol. To remove any contaminating genomic DNA, total RNA was digested with DNase. Semi-quantitative RT-PCR was carried out as described earlier using oligo (dT) 12-18 as primer and MMLV reverse transcriptase (Clontech) in a 20-μl reaction mixture. The resulting cDNA was appropriately diluted, and diluted cDNA was amplified using Titanium Taq polymerase and the following primers for human proinflammatory genes: […]
It was performed using the ABI-Prism7700 sequence detection system (Applied Biosystems, Foster City, Calif.) using TaqMan Universal Master Mix and optimized concentrations of FAM-labeled probe, forward and reverse primers (Applied Biosystems) as described earlier. […] Data were processed by the ABI Sequence Detection System 1.6 software and analyzed by ANOVA.
Cells pretreated with ASO and ScO against N-SMase and A-SMase for 40 h were stimulated with (Aβ+IL-1β) under serum-free condition. After 24 h of stimulation, the concentration of nitrite was measured in supernatants (FIG. 4A) by Griess reagent. […] After 6 h, the expression of iNOS mRNA was analyzed by both semi-quantitative RT-PCR (C) and quantitative real-time PCR (FIG. 4D). The expression of TNF-a, IL-6 and IL-Iβ mRNAs were analyzed by semi-quantitative RT-PCR (FIG. 4E). […]

5′- CAGCGAGCCCGTCCACCAGCC -3′ (DNA, all phosphorothioate, methylation of C not given here) [ASO against N-SMase, ID; NO.: 12]
protection of neurons from activated astrocyte-induced apoptosis (TUNEL) [1]: markedly protected
LDH release from neurons [2]: significant reduction
level of N-SMase protein [3]: effectively inhibited
(Aβ+IL-1β)-induced expression of iNOS mRNA [4]: strongly inhibited
